From patent publication US20250346584A1, “NOVEL KAPPA OPIOID LIGANDS” (The Scripps Research Institute, priority 2012, published 2025)

Target: kappa opioid receptor (OPRK1) (Homo sapiens (Human), UniProt P41145)
Test: OPRK1 antagonist assay (b-arrestin-2-TEV / b-lactamase reporter cell line, EC80 U-50488 challenge)
Type: cell-based
Settings: read-out: IC50 nM (% inhib if other than 50%); antagonist mode vs EC80 U-50488; NA = not active at concentrations up to 10 μM

kappa opioid receptor (OPRK1), sequence (P41145 whole entry): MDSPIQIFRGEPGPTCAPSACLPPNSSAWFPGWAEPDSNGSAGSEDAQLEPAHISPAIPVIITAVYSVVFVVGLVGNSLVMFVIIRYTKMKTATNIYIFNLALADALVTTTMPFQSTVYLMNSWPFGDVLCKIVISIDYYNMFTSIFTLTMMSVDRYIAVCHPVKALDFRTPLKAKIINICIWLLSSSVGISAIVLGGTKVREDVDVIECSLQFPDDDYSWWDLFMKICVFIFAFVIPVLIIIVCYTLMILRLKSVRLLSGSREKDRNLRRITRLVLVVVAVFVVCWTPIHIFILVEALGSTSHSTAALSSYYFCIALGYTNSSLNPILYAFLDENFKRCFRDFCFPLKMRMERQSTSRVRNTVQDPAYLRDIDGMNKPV

SMILES | IC50
COC(=O)c1cccnc1N1CCC(NC2CCCCC2)C(O)C1 (stereo not drawn) [compound 57] | 2200 nM
COC(=O)c1cc(Br)cnc1N1CCC(NC2CCCCC2C)C(O)C1 (stereo not drawn) [compound 58] | 419 nM
COC(=O)c1cc(Br)cnc1N1CCC(NC2CCCCC2OC)C(O)C1 (stereo not drawn) [compound 59] | 36 nM
COC(=O)c1cc(Br)cnc1N1CCC(NC2CCCCCC2)C(O)C1 (stereo not drawn) [compound 60] | 68 nM
COC(=O)c1cc(Br)cnc1N1CCC(NC2CCOCC2)C(O)C1 (stereo not drawn) [compound 61] | 54 nM
COC(=O)c1cc(Br)cnc1N1CC(O)C(NC2CCCCC2)C(O)C1 (stereo not drawn) [compound 62] | 2700 nM
COC(=O)c1cc(Br)cnc1N1CCC(NC2CCCCC2)C(C)(C)C1 (stereo not drawn) [compound 63] | 234 nM
COC(=O)c1cc(Br)cnc1N1CCC(NC2CCCCC2)CC1C (stereo not drawn) [compound 64] | 901 nM
COC(=O)c1cc(Br)cnc1N1CCC(NC2CCCCC2CO)CC1 (stereo not drawn) [compound 65] | 2300 nM
COC(=O)c1cc(Br)cnc1N1CCCC(NC2CCCCC2)CC1 (stereo not drawn) [compound 66] | 1700 nM
COC(=O)c1cc(Br)cnc1N1CC(NC2CCCCC2)C1 [compound 67] | 1400 nM
COC(=O)c1cc(Br)cnc1N1CCC(NC2CCCCC2)C(CO)C1 (stereo not drawn) [compound 68] | 40 nM
CCOC(=O)c1cc(Br)cnc1N1CCC(NC2CCCCC2)C(CO)C1 (stereo not drawn) [compound 69] | 53 nM
COC(=O)c1cc(Cl)cnc1N1CCC(NC2CCCCC2)C(CO)C1 (stereo not drawn) [compound 70] | 110 nM
CCOC(=O)c1cc(Cl)cnc1N1CCC(NC2CCCCC2)C(CO)C1 (stereo not drawn) [compound 71] | 93 nM
COC(=O)c1cc(F)cnc1N1CCC(NC2CCCCC2)CC1 [compound 72] | 6600 nM
COC(=O)c1cc(Br)cnc1N1CCC(NC2CCCCC2)C(OC)C1 (stereo not drawn) [compound 73] | 205 nM
COC(=O)c1cc(Br)cnc1N1CCC(NC2CCCCCC2)C(CO)C1 (stereo not drawn) [compound 74] | 58 nM
COC(=O)c1cc(I)cnc1N1CCC(NC2CCCCCC2)C(CO)C1 (stereo not drawn) [compound 75] | 36 nM
OCc1cc(Br)cnc1N1CCC(NC2CCCCC2)CC1 [compound 76] | 11300 nM
COC(=O)c1cc(I)cnc1N1CCC(NC2CCCCC2)C(CO)C1 (stereo not drawn) [compound 77] | 11 nM
COC(=O)c1cc(Br)cnc1N1CCC(NC2CC2)CC1 [compound 78] | 1200 nM

SMILES | IC50
COC(=O)c1cc(Br)cnc1N1CCC(NC2CCCC2)C(CO)C1 (stereo not drawn) [compound 79] | 25 nM
COC(=O)c1cc(Br)cnc1N1CCC(NC2CCCCC2C)C(CO)C1 (stereo not drawn) [compound 80] | 87 nM
COC(=O)c1cc(Br)cnc1N1CCC(NC2CCOCC2)C(CO)C1 (stereo not drawn) [compound 81] | 126 nM
COC(=O)c1cc(Br)cnc1N1CCC(NC2CCCCC2OC)C(CO)C1 (stereo not drawn) [compound 82] | 127 nM
COC(=O)c1cc(Br)cnc1N1CCC(N)C(O)C1 (stereo not drawn) [compound 83] | 5900 nM
COC(=O)c1cc([N+](=O)[O-])cnc1N1CCC(NC2CCCCC2)CC1 [compound 84] | 6200 nM
COC(=O)c1cc(N)cnc1N1CCC(NC2CCCCC2)CC1 [compound 85] | 1800 nM
COC(=O)c1cc(NC(C)=O)cnc1N1CCC(NC2CCCCC2)CC1 [compound 86] | 628 nM
CNC(=O)c1cc(Br)cnc1N1CCC(NC2CCCCC2)CC1 [compound 87] | 19000 nM
COC(=O)c1cc(I)cnc1N1CCC(NC2CCCC2)C(CO)C1 (stereo not drawn) [compound 88] | 52 nM
COC(=O)c1cc(I)cnc1N1CCC(NC2CCCCC2C)C(CO)C1 (stereo not drawn) [compound 89] | 116 nM
COC(=O)c1cc(I)cnc1N1CCC(NC2CCOCC2)C(CO)C1 (stereo not drawn) [compound 90] | 186 nM
COC(=O)c1cc(I)cnc1N1CCC(NC2CCCCC2OC)C(CO)C1 (stereo not drawn) [compound 91] | 198 nM
CCOC(=O)c1cc(C(=O)OC)c(C)nc1N1CCC(NC2CCCCC2)CC1 [compound 92] | 2600 nM
CCOC(=O)c1cc(C(=O)OC)c(C)nc1N1CCC(NC2CCCCC2)C(CO)C1 (stereo not drawn) [compound 93] | 621 nM
CCOC(=O)c1cc(C(=O)OC)c(C)nc1N1CCC(NC2CCCCC2)C(O)C1 (stereo not drawn) [compound 94] | 61 nM
CCCC(=O)Nc1cnc(N2CCC(NC3CCCCC3)CC2)c(C(=O)OC)c1 [compound 95] | 1.4 nM
CC(=O)c1cc(Br)cnc1N1CCC(NC2CCCCC2)CC1 [compound 96] | 6700 nM
CC(=O)c1cc(Br)cnc1N1CCC(NC2CCCCC2)C(CO)C1 (stereo not drawn) [compound 97] | 2000 nM
COC(=O)c1cc([N+](=O)[O-])cnc1N1CCC(NC2CCCCC2)C(O)C1 (stereo not drawn) [compound 98] | 1100 nM
CC(=O)c1cc(Br)cnc1N1CCC(NC2CCCCC2)C(O)C1 (stereo not drawn) [compound 99] | 4500 nM
CCO/N=C/c1cc(Br)cnc1N1CCC(NC2CCCCC2)CC1 [compound 101] | 4000 nM

SMILES | IC50
CCOC(=O)c1cc(C(=O)OC)c(C)nc1N1CCC(NC2CCCCC2)C1 (stereo not drawn) [compound 104] | 2200 nM
COC(=O)c1cc(I)cnc1N1CC[C@@H](NC2CCCCC2)[C@H](O)C1 [compound 106] | 24 nM
CCc1noc(-c2cc(Br)cnc2N2CCC(NC3CCCCC3)CC2)n1 [compound 107] | 11000 nM
COC(=O)c1cc(C)cnc1N1CCC(NC2CCCCC2)CC1 [compound 108] | 404 nM
COC(=O)c1cc(C)cnc1N1CCC(NC2CCCCC2)C(CO)C1 (stereo not drawn) [compound 109] | 198 nM
COC(=O)c1cc(C)cnc1N1CCC(NC2CCCCC2)C(O)C1 (stereo not drawn) [compound 110] | 108 nM
COC(=O)c1cc(Cl)cnc1N1CC[C@H](NC2CCCCC2)[C@@H](O)C1 [compound 111] | 281 nM
COC(=O)c1cc(Br)cnc1N1CCC(NC2CCCCC2)C(C(=O)OC)C1 (stereo not drawn) [compound 113] | 2000 nM
COC(=O)c1cc(Br)cnc1N1CCC(NC2CCCC2)C(C(=O)OC)C1 (stereo not drawn) [compound 114] | 1200 nM
COC(=O)c1cc(Br)cnc1N1CCC(NC2CCCCCC2)C(C(=O)OC)C1 (stereo not drawn) [compound 115] | 1700 nM
COC(=O)c1cc(Br)cnc1N1CCC(NC2CCCCC2)C(C(=O)OC)C1 (stereo not drawn) [compound 116] | 793 nM
COC(=O)c1cc(Br)cnc1N1CCC(NC2CCCC2)C(C(=O)OC)C1 (stereo not drawn) [compound 117] | 3800 nM
COC(=O)c1cc(Br)cnc1N1CCC(NC2CCCCCC2)C(C(=O)OC)C1 (stereo not drawn) [compound 118] | 661 nM
CCOC(=O)c1cc(C(=O)OC)c(C)nc1N1CC[C@@H](NC2CCCCC2)[C@H](O)C1 [compound 119] | 12 nM
COC(=O)c1cc(Br)cnc1N1CCC(NC2CCCCC2)C(OC)C1 (stereo not drawn) [compound 122] | 125 nM
COC(=O)c1cc(I)cnc1N1CCC(NC2CCCCC2)C(OC)C1 (stereo not drawn) [compound 123] | 11 nM
COC(=O)c1cc(I)cnc1N1CCC(NC2CCCCC2)C(O)C1 (stereo not drawn) [compound 126] | 112 nM
CC(=O)c1cc(Br)cnc1N1CC[C@@H](NC2CCCCC2)[C@H](O)C1 [compound 127] | 33 nM
COC(=O)c1cc(C)cnc1N1CC[C@@H](NC2CCCCC2)[C@H](O)C1 [compound 128] | 35 nM
O=Cc1cc(Br)cnc1N1CC[C@@H](NC2CCCCC2)[C@H](O)C1 [compound 129] | 799 nM
CCc1cnc(N2CCC(NC3CCCCC3)C(O)C2)c(C(=O)OC)c1 (stereo not drawn) [compound 133] | 272 nM
CCOC(=O)c1cc(Br)cnc1N1CC[C@@H](NC2CCCCC2)[C@H](O)C1 [compound 134] | 23 nM
